Target: T1, human A3AR (Homo sapiens, UniProt P0DMS8)
T1 sequence (P0DMS8 1-318): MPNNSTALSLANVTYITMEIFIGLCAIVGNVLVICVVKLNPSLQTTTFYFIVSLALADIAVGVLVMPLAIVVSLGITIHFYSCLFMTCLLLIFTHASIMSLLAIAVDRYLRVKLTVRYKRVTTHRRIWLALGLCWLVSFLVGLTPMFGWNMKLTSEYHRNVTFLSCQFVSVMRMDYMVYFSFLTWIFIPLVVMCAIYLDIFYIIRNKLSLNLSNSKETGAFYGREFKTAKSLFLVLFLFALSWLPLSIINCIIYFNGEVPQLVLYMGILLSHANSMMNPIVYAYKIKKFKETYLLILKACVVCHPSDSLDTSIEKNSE
Type: binding

| SMILES | Ki | fold higher A3AR affinity than 8a (ratio of Ki values vs 8a at hA3AR) |
| --- | --- | --- |
| CCSc1nc(N)c2ncn([C@H]3[C@H](O)[C@H](O)[C@]4(CO)C[C@H]34)c2n1 [Compound 8b, (1R,2R,3S,4R,5S)-4-(6-Amino-2-(ethylthio)-9H-purin-9-yl)-1-(hydroxymethyl)bicyclo[3.1.0]hexane-2,3-diol] | 970 ± 60 nM |  |
| CCCCCCSc1nc(N)c2ncn([C@H]3[C@H](O)[C@H](O)[C@]4(CO)C[C@H]34)c2n1 [Compound 8c, (1R,2R,3S,4R,5S)-4-(6-Amino-2-(hexylthio)-9H-purin-9-yl)-1-(hydroxymethyl)bicyclo[3.1.0]hexane-2,3-diol] | 548 ± 44 nM |  |
| Nc1nc(SC2CCCCC2)nc2c1ncn2[C@H]1[C@H](O)[C@H](O)[C@]2(CO)C[C@H]12 [Compound 8d, (1R,2R,3S,4R,5S)-4-(6-Amino-2-(cyclohexylthio)-9H-purin-9-yl)-1-(hydroxymethyl)bicyclo[3.1.0]hexane-2,3-diol] | 1080 ± 90 nM |  |
| Nc1nc(SCc2ccccc2)nc2c1ncn2[C@H]1[C@H](O)[C@H](O)[C@]2(CO)C[C@H]12 [Compound 8e, (1R,2R,3S,4R,5S)-4-(6-Amino-2-(benzylthio)-9H-purin-9-yl)-1-(hydroxymethyl)bicyclo[3.1.0]hexane-2,3-diol] | 49.8 ± 5.5 nM | 30 fold |
| Nc1nc(SCCc2ccccc2)nc2c1ncn2[C@H]1[C@H](O)[C@H](O)[C@]2(CO)C[C@H]12 [Compound 8f, (1R,2R,3S,4R,5S)-4-(6-Amino-2-(phenethylthio)-9H-purin-9-yl)-1-(hydroxymethyl)bicyclo[3.1.0]hexane-2,3-diol] | 291 ± 89 nM |  |
| COc1nc(N)c2ncn([C@H]3[C@H](O)[C@H](O)[C@]4(CO)C[C@H]34)c2n1 [Compound 8g, (1R,2R,3S,4R,5S)-4-(6-Amino-2-methoxy-9H-purin-9-yl)-1-(hydroxymethyl)bicyclo[3.1.0]hexane-2,3-diol] | 1140 ± 84 nM |  |
